This note sets out measurements from patent publication US8148391B2 (Cephalon, Inc., priority 2006, dated 2012).

Experiment [1] concerns the target T1, baculovirus-expressed ALK (Homo sapiens, UniProt Q9UM73).
T1 construct: host or cells: baculovirus expression system
In words: ALK Kinase Assay (ELISA-type, time-resolved fluorescence). Format: biochemical. In a few lines: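 Wells were coated with phospholipase C-γ at 10 μg/mL in Tris-buffered saline. Adding 30 ng/ml enzyme started the reaction, which ran at 37° C for 15 minutes before Eu-N1 PT66 antibody detection. Percent inhibition versus log10 concentration gave IC50 by variable-slope fit.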

In experiment [2] the target is T2, c-Met (cytoplasmic domain) (Homo sapiens, UniProt P08581).
T2 construct: 10 ng/mL c-Met (cytoplasmic domain, Invitrogen Corporation #PV3143); purchased Invitrogen Corporation PV3143
In words: c-Met Kinase Assay (same methods as for ALK, with modifications). The format is biochemical. In outline:
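Steps: coat wells with PLC-γ (10 μg/mL, Tris-buffered saline); add 10 ng/mL c-Met cytoplasmic domain to initiate; incubate 15 min, 37° C; detect phosphoproduct via Eu-N1 PT66 antibody.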

[3] abbreviates: ALK kinase inhibition, 1 μM ATP, read-out: ALK Activity.
Setting [4] is: c-Met kinase inhibition, 1 μM ATP, read-out: cMet Activity.
[5] abbreviates: 1 μM ATP (Km level), 30 ng/ml ALK, 37° C., 15 minutes, read-out: ALK Activity (ALK kinase inhibition, IC50 class).
The mark [6] stands for this setting: 1 μM ATP (Km level), 10 ng/mL c-Met, read-out: cMet Activity (c-Met kinase inhibition, IC50 class).
[7] abbreviates: ALK kinase inhibition, 1 μM ATP (Km level), read-out: ALK Activity.
The mark [8] stands for this setting: c-Met kinase inhibition, 1 μM ATP (Km level), read-out: cMet Activity.
The mark [9] stands for this setting: 1 μM ATP (Km level), read-out: ALK Activity (ALK Kinase Inhibition, IC50).
Setting [10] is: 1 μM ATP (Km level), read-out: cMet Activity (c-Met Kinase Inhibition, IC50).

Like-named read-outs stand apart in the source and are kept apart here. Where only a bound is given, the exact number is not on record here.

T2 sequence (P08581 956-1390 limits assumed): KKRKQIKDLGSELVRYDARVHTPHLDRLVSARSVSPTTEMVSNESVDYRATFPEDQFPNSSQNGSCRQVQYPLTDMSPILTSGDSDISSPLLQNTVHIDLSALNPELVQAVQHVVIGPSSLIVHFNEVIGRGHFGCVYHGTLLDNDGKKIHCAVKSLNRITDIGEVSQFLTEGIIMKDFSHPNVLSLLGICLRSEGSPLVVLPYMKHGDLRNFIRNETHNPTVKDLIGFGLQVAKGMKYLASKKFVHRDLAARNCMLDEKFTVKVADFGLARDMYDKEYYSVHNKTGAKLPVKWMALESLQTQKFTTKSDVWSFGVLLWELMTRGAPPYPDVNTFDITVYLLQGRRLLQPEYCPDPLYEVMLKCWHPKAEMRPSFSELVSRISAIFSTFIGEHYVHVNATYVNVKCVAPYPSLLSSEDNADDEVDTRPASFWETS
T1 sequence (Q9UM73 19-1620): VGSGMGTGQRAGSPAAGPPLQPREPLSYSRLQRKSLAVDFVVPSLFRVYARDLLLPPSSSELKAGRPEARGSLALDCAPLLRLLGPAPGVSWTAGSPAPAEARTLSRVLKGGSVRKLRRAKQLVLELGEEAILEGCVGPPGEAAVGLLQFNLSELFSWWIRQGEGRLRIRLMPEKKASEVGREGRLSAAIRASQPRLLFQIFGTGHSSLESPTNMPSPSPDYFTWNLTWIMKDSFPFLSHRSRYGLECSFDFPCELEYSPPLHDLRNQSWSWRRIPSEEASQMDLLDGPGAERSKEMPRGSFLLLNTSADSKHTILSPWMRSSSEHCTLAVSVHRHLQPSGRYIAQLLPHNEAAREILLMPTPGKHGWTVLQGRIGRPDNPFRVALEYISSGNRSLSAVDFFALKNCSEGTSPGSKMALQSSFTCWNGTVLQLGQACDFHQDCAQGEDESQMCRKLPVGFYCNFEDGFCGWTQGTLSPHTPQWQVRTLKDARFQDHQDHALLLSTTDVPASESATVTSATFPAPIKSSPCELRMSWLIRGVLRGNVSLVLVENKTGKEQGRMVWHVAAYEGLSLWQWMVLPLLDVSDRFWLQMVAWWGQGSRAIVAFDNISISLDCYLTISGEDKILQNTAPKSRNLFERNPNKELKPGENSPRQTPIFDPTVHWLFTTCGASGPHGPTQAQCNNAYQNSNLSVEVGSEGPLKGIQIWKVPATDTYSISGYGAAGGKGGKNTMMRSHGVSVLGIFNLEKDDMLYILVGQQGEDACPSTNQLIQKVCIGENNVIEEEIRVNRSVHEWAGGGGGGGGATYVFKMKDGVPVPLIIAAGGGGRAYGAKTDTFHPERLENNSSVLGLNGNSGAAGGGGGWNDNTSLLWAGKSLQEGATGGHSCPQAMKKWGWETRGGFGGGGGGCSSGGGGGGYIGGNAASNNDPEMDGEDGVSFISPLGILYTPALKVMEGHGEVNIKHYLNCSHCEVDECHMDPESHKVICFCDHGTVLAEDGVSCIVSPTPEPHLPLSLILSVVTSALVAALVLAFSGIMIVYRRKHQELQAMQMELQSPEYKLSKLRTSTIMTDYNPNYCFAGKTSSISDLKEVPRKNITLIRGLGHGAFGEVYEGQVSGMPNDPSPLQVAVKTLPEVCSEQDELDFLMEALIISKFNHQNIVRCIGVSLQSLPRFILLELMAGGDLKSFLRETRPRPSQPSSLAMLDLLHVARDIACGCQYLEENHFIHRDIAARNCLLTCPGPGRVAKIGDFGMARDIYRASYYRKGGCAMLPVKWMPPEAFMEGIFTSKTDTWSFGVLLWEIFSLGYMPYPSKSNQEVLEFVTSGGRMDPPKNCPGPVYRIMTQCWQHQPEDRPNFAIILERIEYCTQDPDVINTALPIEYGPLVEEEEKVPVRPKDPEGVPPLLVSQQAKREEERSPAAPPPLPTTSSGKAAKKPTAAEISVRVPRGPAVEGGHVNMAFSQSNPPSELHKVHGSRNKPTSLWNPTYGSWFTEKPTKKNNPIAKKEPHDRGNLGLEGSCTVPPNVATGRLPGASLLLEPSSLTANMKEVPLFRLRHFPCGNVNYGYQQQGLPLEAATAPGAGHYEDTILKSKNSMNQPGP

Regarding `CC(C)[C@H](Nc1nc(Nc2ccc3c(c2)CC(=O)N(C)CC3)ncc1Cl)C(N)=O` [Example 1823, (S)-2-[5-Chloro-2-(3-methyl-4-oxo-2,3,4,5-tetrahydro-1H-benzo[d]azepin-7-ylamino)-pyrimidin-4-ylamino]-3-methyl-butyramide], the IC50 in experiment [1] (setting [3]) is 1000 to 10000 nM; in experiment [2] (setting [4]), over 10000 nM.
Consider `CC(=O)N1CCC(=O)NCc2cc(Nc3ncc(Cl)c(Nc4c(C)cccc4OCC#N)n3)ccc21` [Example 1246, {2-[2-(1-Acetyl-4-oxo-1,2,3,4,5,6-hexahydro-benzo[b][1,5]diazocin-8-ylamino)-5-chloro-pyrimidin-4-ylamino]-3-methyl-phenoxy}-acetonitrile], for which the values for the IC50 in experiment [1] (setting [5]) and in experiment [2] (setting [6]) were 100 to 1000 nM and under 100 nM, respectively.
As for `CC(C)N1C2CCC1c1cc(Nc3ncc(Cl)c(N[C@@H]4CCCC[C@H]4NS(C)(=O)=O)n3)ccc1C2` (stereo partly drawn) [Example 83, N-{(1R,2R)-2-[5-Chloro-2-(12-isopropyl-12-aza-tricyclo[7.2.1.0*2,7*]dodeca-2(7),3,5-trien-4-ylamino)-pyrimidin-4-ylamino]-cyclohexyl}-methanesulfonamide], the figures for the IC50 in experiment [1] (setting [7]) and in experiment [2] (setting [8]) were under 100 nM and 100 to 1000 nM, respectively.
As for `COc1cc2c(cc1Nc1ncc(Cl)c(N[C@H]3[C@@H](C(N)=O)[C@@H]4C=C[C@H]3C4)n1)C(C)(C)CCC(=O)N2C` [Example 1313, (1S,2S,3R,4R)-3-[5-Chloro-2-(8-methoxy-1,5,5-trimethyl-2-oxo-2,3,4,5-tetrahydro-1H-benzo[b]azepin-7-ylamino)-pyrimidin-4-ylamino]-bicyclo[2.2.1]hept-5-ene-2-carboxylic acid amide], the figures for the IC50 in experiment [1] (setting [5]) and in experiment [2] (setting [6]) were under 100 nM and over 10000 nM, respectively.
In the same order, the values of `CNS(=O)(=O)c1ccccc1Nc1nc(Nc2ccc3c(c2)CNC(=O)CCN3C(=O)C(F)(F)F)ncc1Cl` [Example 1303, 2-{5-Chloro-2-[4-oxo-1-(2,2,2-trifluoro-acetyl)-1,2,3,4,5,6-hexahydro-benzo[b][1,5]diazocin-8-ylamino]-pyrimidin-4-ylamino}-N-methyl-benzenesulfonamide] are under 100 nM and under 100 nM.
In the case of `CC(C)S(=O)(=O)c1ccccc1Nc1nc(Nc2cccc3c2OCCCC3(C)C)ncc1Cl` [Example 878, 5-Chloro-N*2*-(5,5-dimethyl-2,3,4,5-tetrahydro-benzo[b]oxepin-9-yl)-N*4*-[2-(propane-2-sulfonyl)-phenyl]-pyrimidine-2,4-diamine], the IC50 is 100 to 1000 nM in experiment [1] (setting [9]) and over 10000 nM in experiment [2] (setting [10]).
As for “N-((1R,2R)-2-{5-Chloro-2-[7-(2,2,2-trifluoro-ethylamino)-6,7,8,9-tetrahydro-5H-benzocyclohepten-2-ylamino]-pyrimidin-4-ylamino}-cyclohexyl)-methanesulfonamide [Example 687]”, the IC50 in experiment [1] (setting [9]) is under 100 nM; in experiment [2] (setting [10]), over 10000 nM.
Consider `COc1c(Nc2ncc(Cl)c(N[C@H]3[C@@H](C(N)=O)[C@@H]4C=C[C@H]3C4)n2)ccc2c1CC[C@H](N1CCOCC1)CC2` [Example 881, (1S,2S,3R,4R)-3-[5-Chloro-2-((R)-1-methoxy-7-morpholin-4-yl-6,7,8,9-tetrahydro-5H-benzocyclohepten-2-ylamino)-pyrimidin-4-ylamino]-bicyclo[2.2.1]hept-5-ene-2-carboxylic acid amide], for which the IC50 in experiment [1] (setting [9]) was under 100 nM; in experiment [2] (cMet Activity (c-Met Kinase Inhibition, IC50), 1 μM ATP (Km level)) it was over 10000 nM.
`CNC(=O)c1cccc(F)c1Nc1nc(Nc2ccc3c(c2)C(=O)NCCO3)ncc1Cl` [Example 1222, 2-[5-Chloro-2-(5-oxo-2,3,4,5-tetrahydro-1,4-benzoxazepin-7-ylamino)-pyrimidin-4-ylamino]-3-fluoro-N-methyl-benzamide]: the IC50 in experiment [1] (setting [5]) and in experiment [2] (setting [6]) was 100 to 1000 nM in each case.
Regarding `CNC(=O)c1cccc(F)c1Nc1nc(Nc2ccc3c(c2)N(C(=O)CN)CCCC3(C)C)ncc1Cl` [Example 1617, 2-{2-[1-(2-Amino-acetyl)-5,5-dimethyl-2,3,4,5-tetrahydro-1H-benzo[b]azepin-8-ylamino]-5-chloro-pyrimidin-4-ylamino}-3-fluoro-N-methyl-benzamide], the IC50 in experiment [1] (setting [3]) was 100 to 1000 nM; in experiment [2] (setting [4]) it was under 100 nM.
In the same order, the values of `CNC(=O)c1ccccc1Nc1nc(Nc2cc3c(cc2OC)N(C)C(=O)OCC3)ncc1Br` [Example 1507, 2-[5-Bromo-2-(3-methoxy-5-methyl-6-oxo-5,6,8,9-tetrahydro-7-oxa-5-aza-benzocyclohepten-2-ylamino)-pyrimidin-4-ylamino]-N-methyl-benzamide] are under 100 nM and 100 to 1000 nM.
In the case of `Cc1cccnc1-c1ccccc1Nc1nc(Nc2ccc3c(c2)CCC(NCC(F)(F)F)CC3)ncc1Cl` (centres unmarked) [Example 657, 5-Chloro-N*4*-[2-(3-methyl-pyridin-2-yl)-phenyl]-N*2*-[7-(2,2,2-trifluoro-ethylamino)-6,7,8,9-tetrahydro-5H-benzocyclohepten-2-yl]-pyrimidine-2,4-diamine], the IC50 in experiment [1] (setting [9]) is 100 to 1000 nM; in experiment [2] (setting [10]), over 10000 nM.
Take `CCN1C(=O)C(N(C)C)CCc2c1ccc(Nc1ncc(Cl)c(Nc3ccccc3S(=O)(=O)N(C)C)n1)c2OC` (centres unmarked) [Example 1348, 2-[5-Chloro-2-(3-dimethylamino-1-ethyl-6-methoxy-2-oxo-2,3,4,5-tetrahydro-1H-benzo[b]azepin-7-ylamino)-pyrimidin-4-ylamino]-N,N-dimethyl-benzenesulfonamide]: the results for the IC50 in experiment [1] (setting [5]) and in experiment [2] (setting [6]) were under 100 nM and over 10000 nM, respectively.
In the same order, the values of `CNC(=O)c1ccccc1Nc1nc(Nc2cc3c(cc2OC)CCC(NCCO)CC3)ncc1Cl` (centres unmarked) [Example 1092, 2-{5-Chloro-2-[7-(2-hydroxy-ethylamino)-3-methoxy-6,7,8,9-tetrahydro-5H-benzocyclohepten-2-ylamino]-pyrimidin-4-ylamino}-N-methyl-benzamide] are under 100 nM and over 10000 nM.
In the same order, the values of `CC(C)S(=O)(=O)c1ccccc1Nc1nc(Nc2ccc3c(c2)CCC(O)CC3)ncc1Cl` (centres unmarked) [Example 1037, 2-{5-Chloro-4-[2-(propane-2-sulfonyl)-phenylamino]-pyrimidin-2-ylamino}-6,7,8,9-tetrahydro-5H-benzocyclohepten-7-ol] are under 100 nM and 100 to 1000 nM.
Take `COc1cc2c(cc1Nc1ncc(Cl)c(Nc3ccccc3S(=O)(=O)N3CC[C@H](C)C3)n1)CCN(CCO)CC2` [Example 855, 2-(7-{5-Chloro-4-[2-((S)-3-methyl-pyrrolidine-1-sulfonyl)-phenylamino]-pyrimidin-2-ylamino}-8-methoxy-1,2,4,5-tetrahydro-benzo[d]azepin-3-yl)-ethanol]: the IC50 in experiment [1] (setting [9]) was under 100 nM; in experiment [2] (setting [10]) it was 100 to 1000 nM.
As to “N-{(1R,2R)-2-[2-(12-sec-Butyl-12-aza-tricyclo[7.2.1.0*2,7*]dodeca-2(7),3,5-trien-4-ylamino)-5-chloro-pyrimidin-4-ylamino]-cyclohexyl}-methanesulfonamide [Example 85]”, the results for the IC50 in experiment [1] (setting [7]) and in experiment [2] (setting [8]) were under 100 nM and 100 to 1000 nM, respectively.
In the case of `COc1cc2c(cc1Nc1ncc(Cl)c(Nc3ccccc3S(=O)(=O)N3CCCC3)n1)CCN(CCS(C)(=O)=O)CC2` [Example 1178, 5-Chloro-N*2*-[3-(2-methanesulfonyl-ethyl)-8-methoxy-2,3,4,5-tetrahydro-1H-benzo[d]azepin-7-yl]-N*4*-[2-(pyrrolidine-1-sulfonyl)-phenyl]-pyrimidine-2,4-diamine], the IC50 in experiment [1] (setting [5]) was under 100 nM; in experiment [2] (setting [6]) it was 100 to 1000 nM.
In the same order, the values of `CN1C(=O)CCCc2cc(Nc3ncc(Cl)c(Nc4c(F)cccc4C(=O)NCC#N)n3)ccc21` [Example 1045, 2-[5-Chloro-2-(1-methyl-2-oxo-2,3,4,5-tetrahydro-1H-benzo[b]azepin-7-ylamino)-pyrimidin-4-ylamino]-N-cyanomethyl-3-fluoro-benzamide] are under 100 nM and under 100 nM.
As for “8-[5-Chloro-4-(2-pyrazol-1-yl-phenylamino)-pyrimidin-2-ylamino]-3-methyl-1,3,4,5-tetrahydro-benzo[d]azepin-2-one [Example 1819]”, the IC50 in experiment [1] (setting [3]) and in experiment [2] (setting [4]) was 1000 to 10000 nM in each case.
Take `COc1c(Nc2ncc(Cl)c(Nc3ccccc3-n3cccn3)n2)ccc2c1CCC(N1CCOCC1)CC2` (centres unmarked) [Example 901, 5-Chloro-N*2*-(1-methoxy-7-morpholin-4-yl-6,7,8,9-tetrahydro-5H-benzocyclohepten-2-yl)-N*4*-(2-pyrazol-1-yl-phenyl)-pyrimidine-2,4-diamine]: the IC50 was under 100 nM in experiment [1] (setting [9]) and 1000 to 10000 nM in experiment [2] (setting [10]).
Regarding `CNS(=O)(=O)c1ccccc1Nc1nc(Nc2ccc3c(c2)C2CCC3CN(C(C)C)C2)ncc1Cl` (centres unmarked) [Example 274, 2-[5-Chloro-2-(10-isopropyl-10-aza-tricyclo[6.3.2.0*2,7*]trideca-2,4,6-trien-4-ylamino)-pyrimidin-4-ylamino]-N-methyl-benzenesulfonamide], the IC50 in experiment [1] (setting [7]) and in experiment [2] (setting [8]) was under 100 nM throughout.
